Like-named read-outs stand apart in the source and are kept apart here.
Columns and labels:
[1] = system: PC-3 prostate adenocarcinoma; test: Inhibition of Cell Proliferation (14C-thymidine incorporation), PC-3; assay type: cell-based; conditions: Homo sapiens, PC-3 cell line
Experimental: The ability of a test compound to inhibit the proliferation of cell growth was determined by measuring incorporation of ^14C-labelled thymidine into newly synthesized DNA within the cells. This method was used on cell lines derived from carcinomas originating from several tissues such as HeLa cervical adenocarcinoma (American Type Culture Collection (ATCC), Virginia, Cat. #CCL-2), A375 malignant melanoma (ATCC CRL-1619), SK-OV-3 ovarian adenocarcinoma (ATCC HTB-77) HCT-116 colon carcinoma (CCL-247), PC-3 prostate adenocarcinoma (ATCC CRL-1435), and MDA-MB-231 (Xenogen Corp.) In this way the effect of a compound on cell growth of cells with many different phenotypes can be determined. Cells were trypsinized and counted and 3000-8000 cells were added to each well of a 96-well CytoStar tissue culture treated scintillating microplate (Amersham #RPNQ0160) in complete medium in a volume of 100 μl. Cells were incubated for 24 hours in complete medium at 37° C. in an atmosphere containing 5% CO2. Next, 1 μl of test compound in 100% DMSO was added to the wells of the plate. DMSO only was added to control wells. Cells were incubated for 24 more hours in complete medium at 37° C. in an atmosphere containing 5% CO2. Methyl ^14C-thymidine 56 mCi/mmol (NEN #NEC568 or Amersham #CFA532) was diluted in complete medium and 0.2 uCi/well was added to each well of the CytoStar plate in a volume of 20 μl. The plate was incubated for 24 hours at 37° C. plus 5% CO2 in drug plus ^14C-thymidine. The contents of the plate were discarded into a ^14C radioactive waste container by inverting the plate and the plate was washed twice with 200 μl PBS. 200 μl of PBS is added to each well. The top of the plate was sealed with a transparent plate sealer and a white plate backing sealer (Packard #6005199) was applied to the bottom of the plate. The degree of methyl ^14C-thymidine incorporation was quantified on a Packard Top Count.

A375 malignant melanoma = test: Inhibition of Cell Proliferation (14C-thymidine incorporation), A375; assay type: cell-based; conditions: Homo sapiens, A-375, A375 cell line
Procedure, shortened: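 3000-8000 cells/well, 24 h preculture; cmpd in DMSO 24 h; + 0.2 uCi/well methyl 14C-thymidine (56 mCi/mmol) 24 h with drug; 37° C, 5% CO2; PBS wash x2; scintillation count of label incorporated; DMSO controls.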

[2] = biological target: T1, VEGF-R (vascular endothelial growth factor receptor-2) (Rattus norvegicus, UniProt O08775); test: VEGF-R Screening Assay; assay type: biochemical; conditions: read-out: VEGF-R IC50
T1 construct: polyhistidine (6xHIS) (N)

FGF-R2 = FGF-R2 (Homo sapiens, UniProt P21802); test: Kinase Selectivity Assay FGF-R2; assay type: biochemical; conditions: Tables 2a-2k
Procedure, shortened: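 Radiometric ^33P-γ-ATP transfer to a biotinylated peptide substrate captured on streptavidin plates; enzyme in 50 mM Tris-HCl pH 8.0, 0.1% BSA, 1% DMSO, 1 h at 30° C.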

[3] = biological target: T2, HER2 (human epidermal growth factor receptor-2) (Homo sapiens, UniProt P04626); test: Kinase Selectivity Assay HER2; assay type: biochemical
T2 construct: begins at amino acid 676 followed by the remainder of the HER2 cytoplasmic domain; polyhistidine (N)
Procedure, shortened: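 Reactions ran one hour at 30° C in 1% DMSO with enzyme diluted in 50 mM Tris-HCl pH 8.0, 0.1% BSA. Scintillation counting read ^33P incorporated into immobilized biotinylated peptide.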

[4] = Kinase Selectivity, Tables 2a-2k
[5] = Kinase Selectivity, Tables 2a-2k, read-out: HER2 Kinase IC50

Chain of FGF-R2 (P21802 22-821, species assumed): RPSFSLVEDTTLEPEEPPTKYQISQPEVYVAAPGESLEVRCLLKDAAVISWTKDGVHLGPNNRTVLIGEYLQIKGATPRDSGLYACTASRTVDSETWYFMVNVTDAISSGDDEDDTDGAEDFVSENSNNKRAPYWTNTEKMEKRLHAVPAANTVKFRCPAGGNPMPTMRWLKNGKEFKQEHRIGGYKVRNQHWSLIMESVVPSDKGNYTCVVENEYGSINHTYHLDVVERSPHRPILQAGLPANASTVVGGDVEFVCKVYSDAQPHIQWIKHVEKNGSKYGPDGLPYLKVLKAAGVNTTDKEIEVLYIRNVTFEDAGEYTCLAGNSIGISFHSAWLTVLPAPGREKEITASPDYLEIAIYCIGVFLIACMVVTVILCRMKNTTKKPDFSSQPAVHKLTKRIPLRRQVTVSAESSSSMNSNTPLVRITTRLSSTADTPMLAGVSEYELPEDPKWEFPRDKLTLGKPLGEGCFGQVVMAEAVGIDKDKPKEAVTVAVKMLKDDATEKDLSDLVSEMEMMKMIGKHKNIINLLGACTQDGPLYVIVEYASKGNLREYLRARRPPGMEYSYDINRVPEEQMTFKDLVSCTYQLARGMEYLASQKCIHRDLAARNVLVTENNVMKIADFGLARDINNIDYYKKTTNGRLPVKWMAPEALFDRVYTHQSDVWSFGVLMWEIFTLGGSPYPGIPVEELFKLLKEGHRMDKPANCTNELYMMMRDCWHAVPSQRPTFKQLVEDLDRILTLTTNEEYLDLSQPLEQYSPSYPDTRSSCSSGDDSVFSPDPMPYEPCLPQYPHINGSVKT
T2 sequence (P04626 676-1255 limits assumed): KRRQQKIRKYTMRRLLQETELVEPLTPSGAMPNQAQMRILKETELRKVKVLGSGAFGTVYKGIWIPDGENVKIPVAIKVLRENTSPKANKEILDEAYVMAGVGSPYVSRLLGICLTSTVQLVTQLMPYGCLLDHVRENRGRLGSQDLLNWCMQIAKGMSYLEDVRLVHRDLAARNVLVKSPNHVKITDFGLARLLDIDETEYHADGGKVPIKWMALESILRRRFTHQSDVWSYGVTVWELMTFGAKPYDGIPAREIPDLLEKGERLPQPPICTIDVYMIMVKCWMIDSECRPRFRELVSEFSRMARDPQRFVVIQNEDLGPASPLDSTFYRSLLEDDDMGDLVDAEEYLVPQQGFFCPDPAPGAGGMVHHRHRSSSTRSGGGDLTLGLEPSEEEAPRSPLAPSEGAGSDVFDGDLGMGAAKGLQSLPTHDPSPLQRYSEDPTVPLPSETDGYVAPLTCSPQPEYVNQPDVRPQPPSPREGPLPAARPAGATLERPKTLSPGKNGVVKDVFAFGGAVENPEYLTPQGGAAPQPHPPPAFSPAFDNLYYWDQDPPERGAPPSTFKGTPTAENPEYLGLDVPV
T1 sequence (O08775 786-1343): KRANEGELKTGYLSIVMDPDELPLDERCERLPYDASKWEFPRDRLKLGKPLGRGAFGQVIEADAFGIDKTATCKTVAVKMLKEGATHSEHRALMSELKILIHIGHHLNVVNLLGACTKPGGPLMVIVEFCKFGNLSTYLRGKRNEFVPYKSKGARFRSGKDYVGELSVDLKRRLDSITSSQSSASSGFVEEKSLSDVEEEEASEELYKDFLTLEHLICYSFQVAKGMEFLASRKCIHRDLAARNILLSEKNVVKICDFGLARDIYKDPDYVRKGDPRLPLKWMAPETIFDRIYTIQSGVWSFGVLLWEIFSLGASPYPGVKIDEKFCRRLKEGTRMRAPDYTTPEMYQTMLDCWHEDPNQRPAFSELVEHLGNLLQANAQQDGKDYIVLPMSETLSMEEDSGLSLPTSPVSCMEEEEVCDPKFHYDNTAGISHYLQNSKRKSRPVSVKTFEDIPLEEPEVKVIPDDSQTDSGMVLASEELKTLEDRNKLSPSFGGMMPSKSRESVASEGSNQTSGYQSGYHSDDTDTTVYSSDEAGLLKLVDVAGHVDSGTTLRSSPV

Compound	IC50 [1]	IC50 (A375 malignant melanoma)	IC50 [2, 4]	IC50 ([2]; Table 1)	IC50 (FGF-R2)	IC50 [3, 5]	IC50 ([3]; Table 1, read-out: HER2 IC50)
Nc1nc(Nc2ccc(S(N)(=O)=O)cc2)nn1C(=O)c1cccs1 [Cpd 14, 4-[[5-amino-1-(2-thienylcarbonyl)-1H-1,2,4-triazol-3-yl]amino]-benzenesulfonamide]	157 nM	26500 nM	26 nM	26.7 nM	27 nM		
CC(O)c1ccc(F)c(C(=O)n2nc(Nc3ccc(S(N)(=O)=O)cc3)nc2N)c1F (stereo not shown) [Cpd 58, 4-[[5-amino-1-[2,6-difluoro-3-(1-hydroxyethyl)benzoyl]-1H-1,2,4-triazol-3-yl]amino]-benzenesulfonamide]	362 nM	981 nM	419 nM	420 nM	96 nM	654 nM	650 nM
Cc1ccc(F)c(C(=O)n2nc(Nc3ccc(S(N)(=O)=O)cc3)nc2N)c1Cl [Cpd 69, 4-[[5-amino-1-(2-chloro-6-fluoro-3-methylbenzoyl)-1H-1,2,4-triazol-3-yl]amino]-benzenesulfonamide]	8 nM	441 nM			365 nM		
Nc1nc(Nc2ccc(S(N)(=O)=O)cc2)nn1C(=O)c1c(F)cccc1Cl [Cpd 70, 4-[[5-amino-1-(2-chloro-6-fluorobenzoyl)-1H-1,2,4-triazol-3-yl]amino]-benzenesulfonamide]	11 nM	1100 nM			273 nM	1230 nM	1230 nM
CN1CCN(c2ccc(Nc3nc(N)n(C(=O)c4c(F)cccc4F)n3)cc2)CC1 [Cpd 71, 1-(2,6-difluorobenzoyl)-N^3-[4-(4-methyl-1-piperazinyl)phenyl]-1H-1,2,4-triazole-3,5-diamine]	25 nM		430 nM	430 nM	441 nM	1300 nM	1300 nM
CNS(=O)(=O)c1ccc(Nc2nc(N)n(C(=O)c3c(F)ccc(C)c3F)n2)cc1 [Cpd 81, 4-[[5-amino-1-(2,6-difluoro-3-methylbenzoyl)-1H-1,2,4-triazol-3-yl]amino]-N-methyl-benzenesulfonamide]	25 nM	1770 nM			268 nM		
CCc1ccc(C(=O)n2nc(Nc3ccc(S(=O)(=O)NC)cc3)nc2N)s1 [Cpd 84, 4-[[5-amino-1-[(5-ethyl-2-thienyl)carbonyl]-1H-1,2,4-triazol-3-yl]amino]-N-methyl-benzenesulfonamide]	23 nM				300 nM		

— patent US6924302B2, “Substituted triazole diamine derivatives as kinase inhibitors” (Ortho McNeil Pharmaceutical, Inc., priority 2000, dated 2005)
